Read-outs that look alike come from different tables or passages of the source. Starred links: 1 amine or outer side, 2 acyl side, 3 side chain; linkers in the order of their positions; H or OH if unused. Positions of bridges follow the written chain, without caps; N, C: chain ends. Non-standard residues stand in square brackets, D forms with d. Residues, ends and D or L forms follow the SMILES beside them. ξ: configuration not given here. Phe(2,4-F2) = N[C@@H](Cc1ccc(F)cc1F)C(=O)O; Phe(3-Me) = Cc1cccc(C[C@H](N)C(=O)O)c1; γGlu = O=C(O)[C@H](CCC(=O)[*:2])N[*:1]; 2Nal = N[C@@H](Cc1ccc2ccccc2c1)C(=O)O; βAsp = O=C(O)[C@H](CC(=O)[*:2])N[*:1]; Pro(4ξ-F) = O=C(O)[C@@H]1CC(F)CN1; Ahp(2) = CCCCC[C@H](N)C(=O)O; NMeNle = CCCC[C@H](NC)C(=O)O; Tle = CC(C)(C)[C@H](N)C(=O)O; NMeV = CN[C@H](C(=O)O)C(C)C; NHexGly = CCCCCCNCC(=O)O; Nle = CCCC[C@H](N)C(=O)O; Orn = NCCC[C@H](N)C(=O)O; Aun = NCCCCCCCCCCC(=O)O; AEEA = NCCOCCOCC(=O)O
Biological target: T1, mouse VISTA (mVISTA) (Mus musculus, UniProt Q9D659)
T1 construct: expressed in transfected cells; host or cells: Human embryonic kidney 293T cells
T1 sequence (Q9D659 33-308): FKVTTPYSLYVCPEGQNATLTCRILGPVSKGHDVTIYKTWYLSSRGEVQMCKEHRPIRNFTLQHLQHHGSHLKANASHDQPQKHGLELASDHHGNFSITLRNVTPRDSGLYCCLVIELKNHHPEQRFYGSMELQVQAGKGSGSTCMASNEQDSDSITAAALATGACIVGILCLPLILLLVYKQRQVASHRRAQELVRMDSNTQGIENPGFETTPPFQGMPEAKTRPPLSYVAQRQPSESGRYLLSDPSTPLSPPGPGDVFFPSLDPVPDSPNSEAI
Assay: Cell-Based Binding High-Content Assay For mVISTA (HC CBA mVISTA)
Summary of the method: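 293T cells expressing mouse VISTA, with compounds added either after seeding ("no wash") or before seeding and then washed out after 1 h. Biotinylated peptide 2 nM for 30 min at room temperature, then detection with Alexa 647–streptavidin. After fixation with Hoechst stain, plates were high-content imaged; IC50 from four-parameter logistic fit.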

[1] = 293T cells expressing mouse VISTA, competition with biotinylated peptide (2 nM), read-out: HC CBA mVISTA IC50
[2] = cell-based binding high-content assay, mVISTA, the 16th table, read-out: HC CBA mVISTA IC50

CCCCCCN1CC(=O)N[C@@H](Cc2ccc(O)cc2)C(=O)N[C@@H](CCCC)C(=O)N[C@@H](CC(N)=O)C(=O)N[C@@H](CCCNC(=N)N)C(=O)N(C)[C@@H](CCCC)C(=O)N[C@@H](CCCCC)C(=O)N2CC(F)C[C@H]2C(=O)N[C@@H](C(C)(C)C)C(=O)N[C@@H](CO)C(=O)N[C@H](C(=O)N[C@@H](CC(=O)NCCOCCOCC(=O)NCCCCCCCCCCC(=O)O)C(=O)O)CSCC(=O)N[C@@H](Cc2ccccc2)C(=O)N[C@@H](Cc2c[nH]c3ccccc23)C(=O)N[C@@H](CC(=O)O)C1=O (some centres unmarked) [Example 2194] ({CH2CO}-FWD[NHexGly]Y[Nle]NR[NMeNle][Ahp(2)][Pro(4ξ-F)][Tle]SC[βAsp][AEEA][Aun]-OH; thioether N-14)
IC50 (read-out: HC CBA mVISTA IC50): 0.0386 µM

CCCCCCN1CC(=O)N[C@@H](Cc2ccc(O)cc2)C(=O)N[C@@H](CC(C)C)C(=O)N[C@@H](CC(N)=O)C(=O)N[C@@H](CCCNC(=N)N)C(=O)N[C@@H](CC(C)C)C(=O)N[C@@H](CCCCC)C(=O)N2CCC[C@H]2C(=O)N[C@@H](C(C)C)C(=O)N[C@@H](CC(=O)O)C(=O)N[C@H](C(=O)NCC(=O)O)CSCC(=O)N[C@@H](Cc2ccccc2)C(=O)N[C@@H](Cc2ccc(O)cc2)C(=O)N[C@@H](CC(=O)O)C1=O [Example 1011] ({CH2CO}-FYD[NHexGly]YLNRL[Ahp(2)]PVDCG-OH; thioether N-14)
IC50 [1]: 0.0159 µM

CCCCCCN1CC(=O)N[C@@H](Cc2ccc(O)cc2)C(=O)N[C@@H](CCCC)C(=O)N[C@@H](CC(N)=O)C(=O)N[C@@H](CCCNC(=N)N)C(=O)N(C)[C@@H](CCCC)C(=O)N[C@@H](CCCCC)C(=O)N2CCC[C@H]2C(=O)N[C@@H](C(C)C)C(=O)N[C@@H](CCCNC(=N)N)C(=O)N[C@H](C(=O)NCC(=O)O)CSCC(=O)N[C@@H](Cc2ccccc2)C(=O)N[C@@H](Cc2c[nH]c3ccccc23)C(=O)N[C@@H](CC(=O)O)C1=O [Example 1380] ({CH2CO}-FWD[NHexGly]Y[Nle]NR[NMeNle][Ahp(2)]PVRCG-OH; thioether N-14)
IC50 (read-out: HC CBA mVISTA IC50): 0.0121 µM

CCCCCCN1CC(=O)N[C@@H](Cc2ccc(O)cc2)C(=O)N[C@@H](CCCC)C(=O)N[C@@H](CC(N)=O)C(=O)N[C@@H](CCCNC(=N)N)C(=O)N[C@@H](CC(C)C)C(=O)N[C@@H](CCCCC)C(=O)N2CCC[C@H]2C(=O)N[C@@H](C(C)C)C(=O)N[C@@H](CC(=O)O)C(=O)N[C@H](C(=O)NCCOCCOCC(=O)N[C@@H](CCC(=O)NCCOCCOCC(=O)NCCCCCCCCCCC(=O)O)C(=O)O)CSCC(=O)N[C@@H](Cc2cccc(C)c2)C(=O)N[C@@H](Cc2c[nH]c3ccccc23)C(=O)N[C@@H](CC(=O)O)C1=O [compound 2222] ({CH2CO}-[Phe(3-Me)]WD[NHexGly]Y[Nle]NRL[Ahp(2)]PVDC[AEEA][γGlu][AEEA][Aun]-OH; thioether N-14)
IC50 (read-out: HC CBA mVISTA IC50): 0.0287 µM

CCCCCCN1CC(=O)N[C@@H](Cc2ccc(O)cc2)C(=O)N[C@@H](CCCC)C(=O)N[C@@H](CC(N)=O)C(=O)N[C@@H](CCCNC(=N)N)C(=O)N[C@@H](CC(C)C)C(=O)N[C@@H](CCCCC)C(=O)N2CCC[C@H]2C(=O)N[C@@H](C(C)C)C(=O)N[C@@H](CC(=O)O)C(=O)N[C@H](C(=O)N[C@@H](CO)C(=O)O)CSCC(=O)N[C@@H](Cc2cccc(C)c2)C(=O)N[C@@H](Cc2c[nH]c3ccccc23)C(=O)N[C@@H](CC(=O)O)C1=O [compound 1424] ({CH2CO}-[Phe(3-Me)]WD[NHexGly]Y[Nle]NRL[Ahp(2)]PVDCS-OH; thioether N-14)
IC50 (the 19th table, scaffold drawing 22, read-out: HC CBA mVISTA IC50): 0.0119 µM

CCCCCCN1CC(=O)N[C@@H](Cc2ccc(O)cc2)C(=O)N[C@@H](CCCCC)C(=O)N[C@@H](CC(N)=O)C(=O)N[C@@H](CCCNC(=N)N)C(=O)N[C@@H](CC(C)C)C(=O)N[C@@H](CCCCC)C(=O)N2CCC[C@H]2C(=O)N[C@@H](C(C)C)C(=O)N[C@@H](CO)C(=O)N[C@H](C(=O)NCC(N)=O)CSCC(=O)N[C@@H](Cc2ccccc2)C(=O)N[C@@H](Cc2ccc(O)cc2)C(=O)N[C@@H](CC(=O)O)C1=O [Example 1031] ({CH2CO}-FYD[NHexGly]Y[Ahp(2)]NRL[Ahp(2)]PVSCG-NH2; thioether N-14)
IC50 [1]: 0.0347 µM

CCCCCCN1CC(=O)N[C@@H](Cc2ccc(O)cc2)C(=O)N[C@@H](CCCCC)C(=O)N[C@@H](CC(N)=O)C(=O)N[C@@H](CCCNC(=N)N)C(=O)N(C)[C@@H](CCCC)C(=O)N[C@@H](CCCCC)C(=O)N2CCC[C@H]2C(=O)N[C@@H](C(C)C)C(=O)N[C@@H](CC(=O)O)C(=O)N[C@H](C(=O)N[C@@H](CO)C(N)=O)CSCC(=O)N[C@@H](Cc2ccc3ccccc3c2)C(=O)N[C@@H](Cc2c[nH]c3ccccc23)C(=O)N[C@@H](CC(=O)O)C1=O [compound 1254] ({CH2CO}-[2Nal]WD[NHexGly]Y[Ahp(2)]NR[NMeNle][Ahp(2)]PVDCS-NH2; thioether N-14)
IC50 (cell-based binding high-content assay, mVISTA, the 15th table, read-out: HC CBA mVISTA IC50): 0.0157 µM

CCCCCCN1CC(=O)N[C@@H](Cc2ccc(O)cc2)C(=O)N[C@@H](CCCCC)C(=O)N[C@@H](CC(N)=O)C(=O)N[C@@H](CCCNC(=N)N)C(=O)N(C)[C@@H](CCCC)C(=O)N[C@@H](CCCCC)C(=O)N2CCC[C@H]2C(=O)N[C@@H](C(C)C)C(=O)N[C@@H](C(C)C)C(=O)N[C@H](C(=O)NCC(=O)O)CSCC(=O)N[C@@H](Cc2ccc(F)cc2F)C(=O)N[C@@H](Cc2c[nH]c3ccccc23)C(=O)N[C@@H](CC(=O)O)C1=O [compound 1220] ({CH2CO}-[Phe(2,4-F2)]WD[NHexGly]Y[Ahp(2)]NR[NMeNle][Ahp(2)]PVVCG-OH; thioether N-14)
IC50 (read-out: HC CBA mVISTA IC50): 0.0247 µM

CCCCCCN1CC(=O)N[C@@H](Cc2ccc(O)cc2)C(=O)N[C@@H](CC(C)C)C(=O)NCC(=O)N[C@@H](CCCNC(=N)N)C(=O)N[C@@H](Cc2ccc(O)cc2)C(=O)N[C@@H](CCCCC)C(=O)N2CCC[C@H]2C(=O)N[C@@H](C(C)C)C(=O)N[C@@H](C(C)C)C(=O)N[C@H](C(=O)NCC(=O)O)CSCC(=O)N[C@@H](Cc2ccc3ccccc3c2)C(=O)N[C@@H](Cc2ccc(O)cc2)C(=O)N[C@@H](CC(=O)O)C1=O [Ex 1299] ({CH2CO}-[2Nal]YD[NHexGly]YLGRY[Ahp(2)]PVVCG-OH; thioether N-14)
IC50 [2]: 0.0332 µM

CCCCCCN1CC(=O)N[C@@H](Cc2ccc(O)cc2)C(=O)N[C@@H](CC(C)C)C(=O)N[C@@H](CC(N)=O)C(=O)N[C@@H](CCCNC(=N)N)C(=O)N[C@@H](CC(C)C)C(=O)N[C@@H](CCCCC)C(=O)N2CCC[C@H]2C(=O)N[C@@H](C(C)(C)C)C(=O)N[C@@H](CO)C(=O)N[C@H](C(=O)NCCOCCOCC(=O)N[C@@H](CCC(=O)NCCOCCOCC(=O)NCCCCCCCCCCC(=O)O)C(=O)O)CSCC(=O)N[C@@H](Cc2ccccc2)C(=O)N[C@@H](Cc2ccc(O)cc2)C(=O)N[C@@H](CC(=O)O)C1=O [compound 2235] ({CH2CO}-FYD[NHexGly]YLNRL[Ahp(2)]P[Tle]SC[AEEA][γGlu][AEEA][Aun]-OH; thioether N-14)
IC50 (read-out: HC CBA mVISTA IC50): 0.0151 µM

CCCCCCN1CC(=O)N[C@@H](Cc2ccc(O)cc2)C(=O)N[C@@H](CCCC)C(=O)N[C@@H](CC(=O)O)C(=O)N[C@@H](CCCN)C(=O)N(C)[C@@H](CCCC)C(=O)N[C@@H](CCCCC)C(=O)N2CCC[C@H]2C(=O)N[C@@H](C(C)C)C(=O)N[C@@H](CC(=O)O)C(=O)N[C@H](C(=O)N[C@@H](CO)C(N)=O)CSCC(=O)N[C@@H](Cc2ccc3ccccc3c2)C(=O)N[C@@H](Cc2ccc(O)cc2)C(=O)N[C@@H](CC(=O)O)C1=O [Ex 1320] ({CH2CO}-[2Nal]YD[NHexGly]Y[Nle]D[Orn][NMeNle][Ahp(2)]PVDCS-NH2; thioether N-14)
IC50 [2]: 0.0213 µM

CCCCCCN1CC(=O)N[C@@H](Cc2ccc(O)cc2)C(=O)N[C@@H](CCCC)C(=O)N[C@@H](CC(=O)O)C(=O)N[C@@H](CCCN)C(=O)N(C)[C@@H](CCCC)C(=O)N[C@@H](CCCCC)C(=O)N2CCC[C@H]2C(=O)N[C@@H](C(C)(C)C)C(=O)N[C@@H](CC(=O)O)C(=O)N[C@H](C(=O)N[C@@H](CC(N)=O)C(=O)O)CSCC(=O)N[C@@H](Cc2ccccc2)C(=O)N[C@@H](Cc2c[nH]c3ccccc23)C(=O)N[C@@H](CC(=O)O)C1=O [Example 1397] ({CH2CO}-FWD[NHexGly]Y[Nle]D[Orn][NMeNle][Ahp(2)]P[Tle]DCN-OH; thioether N-14)
IC50 (read-out: HC CBA mVISTA IC50): 0.036 µM

CCCCCCN1CC(=O)N[C@@H](Cc2ccc(O)cc2)C(=O)N[C@@H](CCCC)C(=O)N[C@@H](CC(N)=O)C(=O)N[C@@H](CCCNC(=N)N)C(=O)N(C)[C@@H](CCCC)C(=O)N[C@@H](CCCCC)C(=O)N2CCC[C@H]2C(=O)N[C@@H](C(C)C)C(=O)N[C@@H](CC(=O)O)C(=O)N[C@H](C(=O)NCC(=O)O)CSCC(=O)N[C@@H](Cc2ccc3ccccc3c2)C(=O)N[C@@H](Cc2ccc(O)cc2)C(=O)N[C@@H](CC(=O)O)C1=O [Ex 1308] ({CH2CO}-[2Nal]YD[NHexGly]Y[Nle]NR[NMeNle][Ahp(2)]PVDCG-OH; thioether N-14)
IC50 [2]: 0.0095 µM

CCCCCCN1CC(=O)N[C@@H](Cc2ccc(O)cc2)C(=O)N[C@@H](CC(C)C)C(=O)N[C@@H](CC(N)=O)C(=O)N[C@@H](CCCNC(=N)N)C(=O)N(C)[C@@H](C(C)C)C(=O)N[C@@H](CCCCC)C(=O)N2CCC[C@H]2C(=O)N[C@@H](C(C)(C)C)C(=O)N[C@@H](CO)C(=O)N[C@H](C(=O)N[C@@H](CC(=O)NCCOCCOCC(=O)N[C@@H](CC(=O)O)C(=O)NCCOCCOCC(=O)NCCCCCCCCCCC(=O)O)C(=O)O)CSCC(=O)N[C@@H](Cc2ccccc2)C(=O)N[C@@H](Cc2c[nH]c3ccccc23)C(=O)N[C@@H](CC(=O)O)C1=O [compound 2039] ({CH2CO}-FWD[NHexGly]YLNR[NMeV][Ahp(2)]P[Tle]SC[βAsp][AEEA]D[AEEA][Aun]-OH; thioether N-14)
IC50 (cell-based binding high-content assay, mVISTA, read-out: HC CBA miPr ISTA IC50): 0.0238 µM
